In patent publication US9079891B2, “Compounds that modulate intracellular calcium” (CALCIMEDICA, INC., priority 2010, dated 2015):

Key:
[1] = system: secreted IL-2 in Jurkat T cells; test: In vitro assay of cytokine (IL-2) release from T cells; type: cell-based; details: Homo sapiens; Jurkat E6-1 cells; PHA/TPA stimulation 20 hours; IL-2 ELISA
Description: In Vitro Assay of Cytokine Release from T Cells
Jurkat E6-1 cells are obtained from ATCC and maintained in complete medium with 10% FBS at 37° C./6% CO2.
The day prior to performing the assay, Jurkat T cells are plated in 90 μL of HBSS Buffer with 1.8 mM CaCl2 and 1.75% fetal bovine serum (FBS) in a 96 well plate at a density of 1.5×10^5 cells/well for 3 hours. 10 μl of 10× test compound prepared in HBSS is added and incubated for 10 minutes at 37° C./6% CO2. Cells are stimulated by the addition of 10 μl of 11×PHA/TPA (27.5 μg/mL PHA/880 nM TPA) and incubated at 37° C./6% CO2 for 20 hours. On the following day, the supernatants are collected and assayed for IL-2 levels by ELISA according to the manufacturer's protocols. The IC50 value is calculated as the concentration at which 50% of secreted IL-2 in vehicle treated cells is inhibited.

RBL-2H3 cells = test: Fluorescence-based assay of store-operated calcium entry in RBL-2H3 cells (FLIPR, thapsigargin); type: cell-based, rat; details: Rattus norvegicus, Fluo-4, Upslope 0-7 sec, read-out: FLIPR_CRAC: 9 pt CRC - Fluo4_TG-D: RBL-2H3: IC50: Upslope 0-7 sec
Description: B. Fluorescence-Based Assay of Store-Operated Calcium Entry in RBL-2H3 Cells.
RBL-2H3 cells are obtained from ATCC and maintained in complete medium with 10% FBS at 37° C./6% CO2.
The day prior to performing the assay, RBL-2H3 cells are plated in 50 μl of complete medium in a 384 well plate. Cells are grown at 37° C./6% CO2 overnight and grow to 50-60% confluence by the next day. On the assay day, 1.5 μM Fluo-4-AM dye (Invitrogen) in complete medium is added and incubated for 1 hour at RT. Cells are washed twice in Ca^2+-free HBSS buffer and 35 μl Ca^2+-free HBSS buffer is added to each well. 10 μl of a test compound prepared in a Ca^2+-free HBSS solution at 4.5× of the desired concentration is added to a well and incubated for 5 minutes at RT. 10 μl of thapsigargin prepared in a Ca^2+-free HBSS solution at 5.5× of the desired concentration (5.5 uM) is added to each well and incubated for an additional 25 minutes. The initial baseline fluorescence signal is measured with a FLIPR^384 (Molecular Devices) plate reader. 5 μl of 12× calcium in HBSS (12 mM) is added and changes in cellular fluorescence are measured with the FLIPR^384 plate reader. In each well, the change in the fluorescent signal as a function of time due to calcium entry into the cell is determined by calculating the difference between the fluorescent signal measured 7 seconds after calcium addition and the initial baseline fluorescence signal at time zero (t=0). This parameter is designated Upslope. The IC50 value is calculated as the concentration at which 50% of the Upslope is inhibited.

[2] = molecular target: T1, recombinant human STIM1 and Orai1 (Homo sapiens, UniProt Q96D31); test: Fluorescence-based assay of store-operated calcium entry in Orai1/STIM1 stable cells (FLIPR); type: cell-based; details: HEK-293 cells stably expressing human Orai1/STIM1; Fluo-4; Peak-Basal signal; read-out: FLIPR_CRAC: 9 point CRC: O1S1_JR251: IC50: Peak_over_Basal
T1 construct: c-myc (C); expressed in transfected cells; host or cells: HEK-293 cells stably expressing human STIM1 and human Orai1
T1 sequence (Q96D31 whole entry): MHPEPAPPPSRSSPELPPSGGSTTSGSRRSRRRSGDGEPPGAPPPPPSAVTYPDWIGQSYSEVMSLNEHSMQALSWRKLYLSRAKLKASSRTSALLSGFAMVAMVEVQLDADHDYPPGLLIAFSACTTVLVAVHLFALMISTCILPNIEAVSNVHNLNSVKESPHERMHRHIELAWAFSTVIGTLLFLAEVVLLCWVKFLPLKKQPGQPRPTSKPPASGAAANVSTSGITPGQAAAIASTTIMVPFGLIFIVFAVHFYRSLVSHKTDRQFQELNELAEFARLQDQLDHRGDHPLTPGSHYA
Description: A. Fluorescence-Based Assay of Store-Operated Calcium Entry in Orai1/Stim1 Stable Cells.
Cells stably expressing recombinant human STIM1 and Orai1 are generated by transfecting a human Orai1 expression plasmid (pcDNA3.1-Orai1-cmyc) into HEK-293 cells stably overexpressing human STIM1 (Roos et al. 2005 JCB 169(3): 435-445). Colonies of cells stably expressing both STIM1 and Orai1 proteins are selected and then subcloned by limiting dilution. Cells were cultured at 37° C./6% CO2 in complete medium with 10% FBS and appropriate selection markers.
The day prior to performing the assay Orai1/STIM1 stable cells are plated in 50 μL of complete medium at 90-95% confluence in a 384 well plate. Cells are grown at 37° C./6% CO2 overnight. On the day of the assay, 1.5 μM fluo-4-AM (Invitrogen) in complete medium is added to the cells, which are then incubated for 1 hour at RT. Cells are washed once in Ca^2+-free HBSS (Hank's buffered saline solution) and 35 μl of Ca^2+-free HBSS is added to each well. Test compounds are added to wells in a 10 μL Ca^2+-free HBSS solution, prepared at 4.5× the desired final concentration, and incubated for 30 minutes at RT. The initial baseline fluorescence signal is then measured with a FLIPR^384 (Molecular Devices) plate reader. Calcium entry is initiated by adding 5 μl of 10×CaCl2 (10 mM) in HBSS, and changes in cellular fluorescence are measured with the FLIPR^384 plate reader. In each well, the magnitude of the fluorescence signal as a result of calcium entry into the cell is determined by calculating the difference between the peak fluorescence signal measured after calcium addition and the initial baseline fluorescence signal (designated Peak-Basal). IC50 values are typically calculated as the concentration that inhibited 50% of the Peak-Basal signal.

IC50 [1]: < 50 nM
IC50 (RBL-2H3 cells): < 600 nM
IC50 [2]: < 600 nM
SMILES: Cn1nc(C(F)(F)F)cc1-c1cnc(NC(=O)c2c(F)cccc2F)s1 [Example 28, (2,6-difluorophenyl)-N-{5-[1-methyl-3-(trifluoromethyl)pyrazol-5-yl](1,3-thiazol-2-yl)}carboxamide]
